How the values were obtained:
[1] = tested on: C4/2 prostate cancer cells; assay: Mouse xenograft model of Prostate Cancer; assay type: in vivo; conditions: nude mice, 25 mg/kg every other day intraperitoneal, vs vehicle
Description: FIGS. 7A and 7B are graphs showing that the compounds of the disclosure inhibit tumor growth in a mouse xenograft model of Prostate Cancer. Nude mice were inoculated on their flank with one million C4/2 prostate cancer cells (n=20 mice). One week after inoculation, tumors were apparent and mice were then treated with either vehicle (n=10 mice) or Compound 0017 (n=10 mice) at 25 mg/kg every other day by intraperitoneal administration. On the indicated days after the start of vehicle or Compound 0017 administration, tumors were measured in situ with a caliper and tumor volume calculated in cubic millimeters (FIG. 7A). Simultaneously, mouse weight was determined (FIG. 7B). Error bars represent standard error of the mean. **=P<0.01 in accordance with one embodiment of the present disclosure.

[2] = tested on: EKVX; assay: NCI60 cell growth and viability: EKVX; assay type: cell-based; conditions: Non-Small Cell Lung Cancer, two days
[3] = target: T1, recombinant HSF1 DNA-binding domain (DBD) (Homo sapiens, UniProt Q00613); assay: Differential Scanning Fluorimetry (DSF), HSF1 DBD melting temperature
T1 sequence (Q00613 15-120): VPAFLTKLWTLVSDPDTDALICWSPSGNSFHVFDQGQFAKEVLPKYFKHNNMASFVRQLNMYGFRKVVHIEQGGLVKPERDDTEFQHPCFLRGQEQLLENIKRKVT

[4] = tested on: ACHN; assay: NCI60 cell growth and viability: ACHN; assay type: cell-based; conditions: Renal Cancer, two days
[5] = tested on: SK-OV-3; assay: NCI60 cell growth and viability: SK-OV-3; assay type: cell-based; conditions: SK-OV-3, Ovarian Cancer, two days
[6] = tested on: U251; assay: NCI60 cell growth and viability: U251; assay type: cell-based; conditions: U251, CNS Cancer, two days
[7] = tested on: MDA-MB-231; assay: NCI60 cell growth and viability: MDA-MB-231; assay type: cell-based; conditions: MDA-MB-231, Breast Cancer, two days
[8] = tested on: cancer cell lines in the NCI60 collection; assay: NCI60 collection, cell growth and viability (overall); assay type: cell-based; conditions: incubated for two days, FIG. 8
Description: FIG. 8 is a graph showing the compounds of the disclosure suppress the growth of a broad range of cancer types. […] The cancer origins of the different cell lines are indicated with different colors.
HSF1 binding compounds were tested for its activity in suppressing the growth of a broad range of cancer types. For example, Compound 0017 was incubated for two days with a diverse series of cancer cell lines in the NCI60 collection and cell growth and viability were measured, and the results are shown in Table 4.

[9] = tested on: RPMI-8226; assay: NCI60 cell growth and viability: RPMI-8226; assay type: cell-based; conditions: RPMI-8226, Leukemia, two days
[10] = tested on: Hsp27, Hsp70, Hsp90 and p23; assay: Chaperone protein levels in C4-2 cells, immunoblot; assay type: cell-based, human; conditions: FIG. 4A/4B
[11] = tested on: C4/2 scramble and HSF1-knockdown cell lines; assay: C4/2 scramble vs HSF1-knockdown cell line; assay type: cell-based, human
Description: GAPDH was used as a loading control. […] Hsp70 is a gene activated by HSF1 and STAT6 is a gene repressed by HSF1. […] Shown is the solvent (DMSO) or two concentrations of Compound 0017 at 2.5 and 5 μM. ns=not significant; *=P<0.05; **=P<0.01 in accordance with one embodiment of the present disclosure.

[12] = tested on: NCI/ADR-RES; assay: NCI60 cell growth and viability: NCI/ADR-RES; assay type: cell-based; conditions: Ovarian Cancer, two days
[13] = tested on: SR; assay: NCI60 cell growth and viability: SR; assay type: cell-based; conditions: Leukemia, two days
[14] = tested on: SK-MEL-5; assay: NCI60 cell growth and viability: SK-MEL-5; assay type: cell-based; conditions: SK-MEL-5, Melanoma, two days
[15] = tested on: HOP-62; assay: NCI60 cell growth and viability: HOP-62; assay type: cell-based; conditions: HOP-62, Non-Small Cell Lung Cancer, two days
[16] = tested on: MDA-MB-468; assay: NCI60 cell growth and viability: MDA-MB-468
[17] = tested on: SW-620; assay: NCI60 cell growth and viability: SW-620; assay type: cell-based; conditions: SW-620, Colon Cancer, two days
[18] = tested on: A498; assay: NCI60 cell growth and viability: A498; assay type: cell-based; conditions: A498, Renal Cancer, two days
[19] = Homo sapiens, 48 h, read-out: log10 [GI50 (M)] (converted)
[20] = Homo sapiens, 48 h, read-out: log10 [LC50 (M)] (converted)

O=C(Nc1ccc(F)cc1)Nc1ccc(Cl)c([N+](=O)[O-])c1 [Compound 0017, 1-(4-chloro-3-nitrophenyl)-3-(4-fluorophenyl)urea]
mouse weight ([1]; FIG. 7B): without impacting the weight | tumor growth (tumor volume) ([1]; C4-2 derived tumors, 21-day, FIG. 7A): inhibits the growth | GI50 [2, 19]: 2.82e-06 M | CC50 [2, 20]: 6.17e-05 M | log10 [TGI (M)] [2]: −4.96 log10 M | ΔTm at 25 µM ([3]; Table 1, 5 μM HSF1 DBD, 25PM Compound, positive = stabilizes, negative = destabilizes HSF1): 3 °C | binding to HSF1 ([3]; thermal denaturation assay): binds HSF1 | GI50 [4, 19]: 2.95e-06 M | CC50 [4, 20]: 6.03e-05 M | log10 [TGI (M)] [4]: −4.96 log10 M | GI50 [5, 19]: 2.63e-06 M | CC50 [5, 20]: 4.27e-05 M | log10 [TGI (M)] [5]: −5.12 log10 M | GI50 ([6]; Homo sapiens, U-251, 48 h, read-out: log10 [GI50 (M)] (converted)): 3.16e-06 M | CC50 ([6]; Homo sapiens, U-251, 48 h, read-out: log10 [LC50 (M)] (converted)): 4.37e-05 M | log10 [TGI (M)] [6]: −4.90 log10 M | GI50 [7, 19]: 2.51e-06 M | CC50 [7, 20]: 3.39e-05 M | log10 [TGI (M)] [7]: −5.19 log10 M | growth of a broad range of cancer cells [8]: inhibited the growth of a broad range of cancer cells | GI50 [9, 19]: 1.91e-06 M | CC50 [9, 20]: ≥ 0.0001 M | log10 [TGI (M)] [9]: −5.07 log10 M | steady-state protein level of Hsp27, Hsp70, Hsp90 and p23 [10]: dose-dependently reduced | cell viability, HSF1-expressing vs HSF1-knockdown C4/2 cells ([11]; 2.5 and 5 μM, FIG. 5C): preferentially reduces cell viability | Hsp70 and STAT6 expression ([11]; 48-hour treatment, in C4/2 scramble cell line, but not in HSF1-knockdown cell line, FIG. 5B): inhibition of Hsp70 expression and de-repression of STAT6 | GI50 [12, 19]: 2.57e-06 M | CC50 [12, 20]: ≥ 0.0001 M | log10 [TGI (M)] [12]: −4.99 log10 M | GI50 [13, 19]: 3.39e-06 M | CC50 [13, 20]: ≥ 0.0001 M | log10 [TGI (M)] [13]: −4.00 log10 M | GI50 [14, 19]: 1.78e-06 M | CC50 [14, 20]: 5.89e-06 M | log10 [TGI (M)] [14]: −5.49 log10 M | log10 [TGI (M)] [15]: −4.80 log10 M | GI50 [15, 19]: 3.8e-06 M | CC50 [15, 20]: 5.62e-05 M | GI50 ([16]; Homo sapiens, MDA-MB-468, 48 h, read-out: log10 [GI50 (M)] (converted)): 2.14e-06 M | CC50 ([16]; Homo sapiens, MDA-MB-468, 48 h, read-out: log10 [LC50 (M)] (converted)): 3.55e-05 M | log10 [TGI (M)] ([16]; MDA-MB-468, Breast Cancer, two days): −5.12 log10 M | GI50 [17, 19]: 3.47e-06 M | CC50 [17, 20]: 4.79e-05 M | log10 [TGI (M)] [17]: −4.86 log10 M | log10 [TGI (M)] [18]: −5.24 log10 M | GI50 [18, 19]: 1.82e-06 M | CC50 [18, 20]: 2.34e-05 M
